Test: Solution state photophysical studies (absorption, emission, lifetime) in DMSO
Type: physicochemical
Details: in DMSO at RT; for λmax (abs.) / λmax (em.): 10 μM; for λmax (em.): under UV light (λexc=365 nm)
Description: For solution state photophysical studies (absorption, emission and lifetime) stock for all compounds (1 mM concentration) were prepared in DMSO solvent. For the measurement, the required volume was added from the stock solution in 1 mL solution to make it final concentration as 10 μM. For aggregation induced emission (AIE) measurement, different ratio of DCM-Hexane solvent mixture (0-99%) was prepared by adding required volume of DCM and Hexane, subsequently measurements were performed by maintaining 10 μM dye concentration in each 1 mL solution.
The AIE images were taken in 5 ml vials which were placed on a handled UV (excitation wavelength 365 nm) instrument. For the solid-state absorption and emission measurements, powder samples were prepared by dissolving compound and BaSO4 in DCM and then evaporated to dryness. Solution Spectra were measured in HORIBA Jobin Yvon Fluorolog using 1 cm path length quartz cuvette. To make the powder more homogenous, mixtures were grinded effectively for few minutes.

Structure (SMILES) | Lifetime [ns] | Rel. QY | Stokes shift [nm] | λmax (abs.) [nm] | λmax (em.) [nm]
COc1ccc(-c2cccc3c4cc(-c5cccc6ccccc56)ccc4cc(-c4ccccc4)[n+]23)cc1.O=S(=O)([O-])C(F)(F)F [2p, 4-(4-methoxyphenyl)-10-(naphthalen-1-yl)-6-phenylpyrido[2,1-a]isoquinolin-5-ium trifluoromethanesulfonate] | 3.38 | 0.032 | 140 | 412 | 552
COc1ccc(-c2cccc3c4ccccc4cc(-c4ccccc4)[n+]23)cc1.O=S(=O)([O-])C(F)(F)F [2f, 4-(4-methoxyphenyl)-6-phenylpyrido[2,1-a]isoquinolin-5-ium trifluoromethane sulfonate] | 5.32 | 0.018 | 136 | 404 | 540
COc1ccc(-c2cccc3c4cc(-c5ccccc5)ccc4cc(-c4ccccc4)[n+]23)cc1.O=S(=O)([O-])C(F)(F)F [2o, 4-(4-methoxyphenyl)-6,10-diphenylpyrido[2,1-a]isoquinolin-5-ium trifluoro methanesulfonate] | 3.72 | 0.036 | 129 | 417 | 546
COc1ccc(-c2cccc3c4cc(C)ccc4cc(-c4ccccc4)[n+]23)cc1.O=S(=O)([O-])C(F)(F)F [2m, 4-(4-methoxyphenyl)-10-methyl-6-phenylpyrido[2,1-a]isoquinolin-5-ium trifluoro methanesulfonate] | 3.6 | 0.020 | 131 | 409 | 540
COc1ccc(-c2cccc3c4cc(C)cc(C)c4cc(-c4ccccc4)[n+]23)cc1.O=S(=O)([O-])C(F)(F)F [2t, 4-(4-methoxyphenyl)-8.10-dimethyl-6-phenylpyrido[2,1-a]isoquinolin-5-ium trifluoro methanesulfonate] | 4.49 | 0.024 | 132 | 410 | 542
COc1ccc(-c2cccc3c4ccc(C)cc4cc(-c4ccccc4)[n+]23)cc1.O=S(=O)([O-])C(F)(F)F [2r, 4-(4-methoxyphenyl)-9-methyl-6-phenylpyrido[2,1-a]isoquinolin-5-ium trifluoro methanesulfonate] | 5.93 | 0.017 | 133 | 405 | 538
O=S(=O)([O-])C(F)(F)F.c1ccc(-c2cc3ccccc3c3cccc(-c4cc5ccccc5c5ccccc45)[n+]23)cc1 [2j, 4-(phenanthren-9-yl)-6-phenylpyrido[2,1-a]isoquinolin-5-ium trifluoromethane sulfonate] | 5.19 | 0.220 | 147 | 397 | 544
O=S(=O)([O-])C(F)(F)F.c1ccc(-c2cccc3c4ccccc4cc(-c4ccccc4)[n+]23)cc1 [2a, 4,6-diphenylpyrido[2,1-a]isoquinolin-5-ium trifluoromethanesulfonate] | 5.84 | 0.015 | 116 | 392 | 508
COc1ccc(-c2cccc3c4cc(OC)cc(OC)c4cc(-c4ccccc4)[n+]23)cc1.O=S(=O)([O-])C(F)(F)F [2u, 8,10-dimethoxy-4-(4-methoxyphenyl)-6-phenylpyrido[2,1-a]isoquinolin-5-ium trifluoromethanesulfonate] | 4.2 | 0.125 | 172 | 430 | 602
COc1ccc(-c2cccc3c4ccccc4cc(-c4cccc5ccccc45)[n+]23)cc1.O=S(=O)([O-])C(F)(F)F [2aa, 4-(4-methoxyphenyl)-6-(naphthalen-1-yl)pyrido[2,1-a]isoquinolin-5-ium trifluoromethanesulfonate] | 4.09 | 0.062 | 143 | 397 | 540
COc1ccc(-c2cccc3c4ccccc4cc(-c4cc(OC)cc(OC)c4)[n+]23)cc1.O=S(=O)([O-])C(F)(F)F [2y, 6-(3,5-dimethoxyphenyl)-4-(4-methoxyphenyl)pyrido[2,1-a]isoquinolin-5-ium trifluoromethanesulfonate] | 5.72 | 0.006 | 139 | 401 | 540

Reference: US20240400559A1, “SOLID STATE EMITTERS BASED ON PYRIDINIUM SCAFFOLDS” (Council of Scientific and Industrial Research, priority 2021, published 2024)
